Common to all, as to experiment: NCI tumour cell line growth inhibition, 48 h
For assay [1], the system named is K-562 leukemia.
In assay [2] the test system is UACC-257 melanoma.
The test system of assay [3] is HOP-62 NSCLC.
Assay [4] deals with SK-MEL-2 melanoma.
Assay [5] deals with HS 578T breast.
Assay [6] deals with HCC-2998 colon.
The subject of assay [7] is NCI/ADR-RES ovarian.
Assay [8] deals with CCRF-CEM leukemia.
For assay [9], the system named is CAKI-1 renal.
Assay [10] has as its system SN12C renal.

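Interpolation was linear, between the two tested concentrations surrounding the appropriate level; five concentrations were tested over 48 hours in 96-well plates. TGI denotes the concentration required for complete inhibition of growth.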

In the case of `O=C(Nc1ccc(S(=O)(=O)/N=c2\ncccn2C(=O)C(C(F)(F)F)C(F)(F)F)cc1)C(C(F)(F)F)C(F)(F)F`, the TGI in [1], in [2], in [3], in assay [4], in assay [5] and in assay [6] was over 100 µM in each case. Moreover, the TGI in assay [7] is over 100 µM; in [8], over 100 µM; in [9] it was 0.242 µM; in assay [10] it was over 100 µM.
As for `C/C(=N\O)c1cccc[n+]1Cc1ccccc1`, the TGI in [1], in assay [2], in [3], in assay [4], in [5] and in [6] was over 100 µM throughout. For the same molecule, the TGI in [7], in assay [8], in assay [9] and in [10] was over 100 µM in each case.
Take `O=c1[nH]c(=O)n(COCc2ccccc2)cc1Nc1ccc(Br)cc1`: the TGI in [1] is over 100 µM; in assay [2], over 100 µM; in [3], 88.7 µM; in [5] it was over 100 µM; in [6], over 100 µM; in assay [7], over 100 µM. The TGI in [8], in assay [9] and in assay [10] was over 100 µM each time.
`NCCN1C(=O)c2ccccc2C1c1ccc(Cl)cc1` (stereo unspecified): the TGI in assay [1], in assay [2], in assay [3], in [4], in assay [5] and in assay [6] was over 100 µM each time. Also, the TGI in assay [7], in assay [8], in [9] and in [10] was over 100 µM each time.
`COc1ccccc1C(=O)NCC1CCCN2CCCCC12` (stereo unspecified): the TGI in assay [1], in assay [2], in [3], in assay [4], in [5] and in assay [6] was over 100 µM in each case. Also, the TGI in [7], in [8], in assay [9] and in assay [10] was over 100 µM each time.
For the molecule `O=C(NO)NCCCl`, the TGI in [1], in [2], in [3], in assay [4], in assay [5] and in assay [6] was over 100 µM throughout. Further, the TGI in assay [7], in assay [8], in assay [9] and in assay [10] was over 100 µM throughout.
As to `Cc1cc(S(=O)(=O)Nc2n[nH]c(N)n2)c(Cl)cc1Cl`, the TGI in [1], in assay [2], in [3], in assay [4], in [5] and in [6] was over 10 µM each time. Moreover, the TGI in [7], in [8], in assay [9] and in [10] was over 10 µM in each case.
Take `O=C(/C=C(\C(=O)c1cccs1)c1cccs1)c1ccc(C(=O)/C=C(\C(=O)c2cccs2)c2cccs2)cc1`: the TGI in [1], in assay [2], in [3], in assay [4], in [5] and in assay [6] was over 100 µM in each case. Also, the TGI in assay [7], in assay [8], in [9] and in assay [10] was over 100 µM throughout.
With `C(#CP(c1ccccc1)c1ccccc1)P(C#CP(c1ccccc1)c1ccccc1)c1ccccc1`, the TGI in assay [1], in [2], in [3], in [4], in assay [5] and in assay [6] was over 100 µM in each case. The TGI in assay [7], in assay [8], in assay [9] and in [10] was over 100 µM each time.
On to `COc1ccc(NCC(=O)Nn2c(-c3ccccc3)nc3ccccc3c2=O)cc1`, for which the TGI is over 100 µM in assay [1]; over 100 µM in assay [2]; over 100 µM in assay [3]; over 100 µM in [5]; over 100 µM in assay [6]; 59.1 µM in assay [7]. The TGI in assay [8] and in assay [10] was over 100 µM in each case.
On to `O=C1CSC(c2ccc(Cl)cc2Cl)N1c1ccc(Oc2ccc(Cl)cc2)c(Cl)c1` (stereo unspecified), for which the TGI in assay [1] is over 100 µM; in [2] it was over 100 µM; in [3], 59.8 µM; in assay [4] it was 72.7 µM; in [5], 41.9 µM; in assay [6], over 100 µM. For the same molecule, the TGI in [7] is 55.1 µM; in assay [8], 61.3 µM; in assay [9], 98.1 µM; in assay [10], over 100 µM.
For the molecule `CCCCCCCCCCCCCCCCNc1ccn(C2CC(O)C(COC(c3ccccc3)(c3ccccc3)c3ccc(OC)cc3)O2)c(=O)n1` (stereo unspecified), the TGI in [1], in assay [3], in assay [4], in [5], in [6] and in [7] was over 100 µM each time. The TGI in assay [8], in assay [9] and in assay [10] was over 100 µM throughout.
As for `Cc1cccc(CC(Cc2ccc(C)cc2C(=O)O)C(=O)O)c1` (stereo unspecified), the TGI in assay [1], in assay [2], in [3], in [4], in assay [5] and in assay [6] was over 100 µM in each case. Also, the TGI in assay [7], in [8], in assay [9] and in assay [10] was over 100 µM in each case.
